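Growth conditions: 96-well plates. Treatment: test compound, 48 hours, 5 concentrations. Analysis: linear interpolation between bracketing concentrations; unreached endpoints set to highest concentration. The concentration for full growth arrest is given as TGI.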
Legend:
Test in all cases: NCI anticancer screen, dose series, 48 h
786-0 renal = tested on: 786-0 renal
A498 renal = tested on: A498 renal
A549 NSCLC = tested on: A549 NSCLC
ACHN renal = tested on: ACHN renal
BT-549 breast = tested on: BT-549 breast
CAKI-1 renal = tested on: CAKI-1 renal
CCRF-CEM leukemia = tested on: CCRF-CEM leukemia
COLO 205 colon = tested on: COLO 205 colon
DU-145 prostate = tested on: DU-145 prostate
EKVX NSCLC = tested on: EKVX NSCLC
HCC-2998 colon = tested on: HCC-2998 colon
HCT-116 colon = tested on: HCT-116 colon
HCT-15 colon = tested on: HCT-15 colon
HL-60(TB) leukemia = tested on: HL-60(TB) leukemia
HOP-62 NSCLC = tested on: HOP-62 NSCLC
HOP-92 NSCLC = tested on: HOP-92 NSCLC
HS 578T breast = tested on: HS 578T breast
HT29 colon = tested on: HT29 colon
IGROV1 ovarian = tested on: IGROV1 ovarian
K-562 leukemia = tested on: K-562 leukemia
KM12 colon = tested on: KM12 colon
LOX IMVI melanoma = tested on: LOX IMVI melanoma
M14 melanoma = tested on: M14 melanoma
MALME-3M melanoma = tested on: MALME-3M melanoma
MCF7 breast = tested on: MCF7 breast
MDA-MB-231 breast = tested on: MDA-MB-231 breast
MDA-MB-435 = tested on: MDA-MB-435
MOLT-4 leukemia = tested on: MOLT-4 leukemia
NCI-H226 lung = tested on: NCI-H226 lung
NCI-H23 lung = tested on: NCI-H23 lung
NCI-H460 lung = tested on: NCI-H460 lung
NCI-H522 lung = tested on: NCI-H522 lung
NCI/ADR-RES ovarian = tested on: NCI/ADR-RES ovarian
OVCAR-3 ovarian = tested on: OVCAR-3 ovarian
OVCAR-4 ovarian = tested on: OVCAR-4 ovarian
OVCAR-5 ovarian = tested on: OVCAR-5 ovarian
OVCAR-8 ovarian = tested on: OVCAR-8 ovarian
PC-3 prostate = tested on: PC-3 prostate
RPMI-8226 leukemia = tested on: RPMI-8226 leukemia
SF-268 CNS = tested on: SF-268 CNS
SF-295 CNS = tested on: SF-295 CNS
SF-539 CNS = tested on: SF-539 CNS
SK-MEL-2 melanoma = tested on: SK-MEL-2 melanoma
SK-MEL-28 melanoma = tested on: SK-MEL-28 melanoma
SK-MEL-5 melanoma = tested on: SK-MEL-5 melanoma
SK-OV-3 ovarian = tested on: SK-OV-3 ovarian
SN12C renal = tested on: SN12C renal
SNB-19 CNS = tested on: SNB-19 CNS
SR leukemia = tested on: SR leukemia
T-47D breast = tested on: T-47D breast
TK-10 renal = tested on: TK-10 renal
U251 CNS = tested on: U251 CNS
UACC-257 melanoma = tested on: UACC-257 melanoma
UACC-62 melanoma = tested on: UACC-62 melanoma
UO-31 renal = tested on: UO-31 renal
RXF 393 renal = tested on: RXF 393 renal
SNB-75 CNS = tested on: SNB-75 CNS
SW-620 colon = tested on: SW-620 colon

How did the TGI (786-0 renal) turn out when `O=C(O)/C(=C/C(=O)c1ccc(Cl)cc1)NNc1ccc([N+](=O)[O-])cc1[N+](=O)[O-]` was run?
The TGI was 53.4 µM.

What about the TGI (A498 renal) of the same compound?
Its TGI is over 100 µM.

What about the TGI (A549 NSCLC) of the same compound?
Its TGI is over 100 µM.

And the TGI (ACHN renal)?
The TGI was over 100 µM.

What about the TGI (BT-549 breast) of the same compound?
Its TGI is 92.5 µM.

And the TGI (CAKI-1 renal)?
Its TGI is 46 µM.

What about the TGI (CCRF-CEM leukemia) of the same compound?
Its TGI is 70 µM.

And the TGI (COLO 205 colon)?
The TGI was over 100 µM.

What about the TGI (DU-145 prostate) of the same compound?
The TGI was over 100 µM.

What about the TGI (EKVX NSCLC) of the same compound?
The TGI was over 100 µM.

And the TGI (HCC-2998 colon)?
Its TGI is over 100 µM.

What about the TGI (HCT-116 colon) of the same compound?
Its TGI is 36.3 µM.

What about the TGI (HCT-15 colon) of the same compound?
Its TGI is over 100 µM.

And the TGI (HL-60(TB) leukemia)?
Its TGI is over 100 µM.

What about the TGI (HOP-62 NSCLC) of the same compound?
Its TGI is 70 µM.

What about the TGI (HOP-92 NSCLC) of the same compound?
The TGI was 57.1 µM.

What about the TGI (HS 578T breast) of the same compound?
The TGI was 94.4 µM.

What about the TGI (HT29 colon) of the same compound?
Its TGI is over 100 µM.

And the TGI (IGROV1 ovarian)?
The TGI was over 100 µM.

And the TGI (K-562 leukemia)?
The TGI was over 100 µM.

What about the TGI (KM12 colon) of the same compound?
Its TGI is over 100 µM.

What about the TGI (LOX IMVI melanoma) of the same compound?
Its TGI is over 100 µM.

What about the TGI (M14 melanoma) of the same compound?
Its TGI is over 100 µM.

And the TGI (MALME-3M melanoma)?
Its TGI is over 100 µM.

And the TGI (MCF7 breast)?
Its TGI is over 100 µM.

And the TGI (MDA-MB-231 breast)?
The TGI was over 100 µM.

And the TGI (MDA-MB-435)?
Its TGI is over 100 µM.

What about the TGI (MOLT-4 leukemia) of the same compound?
Its TGI is over 100 µM.

And the TGI (NCI-H226 lung)?
Its TGI is 69.3 µM.

And the TGI (NCI-H23 lung)?
The TGI was over 100 µM.

And the TGI (NCI-H460 lung)?
Its TGI is over 100 µM.

What about the TGI (NCI-H522 lung) of the same compound?
The TGI was 46 µM.

What about the TGI (NCI/ADR-RES ovarian) of the same compound?
The TGI was over 100 µM.

And the TGI (OVCAR-3 ovarian)?
Its TGI is 94.8 µM.

What about the TGI (OVCAR-4 ovarian) of the same compound?
Its TGI is 42 µM.

What about the TGI (OVCAR-5 ovarian) of the same compound?
The TGI was over 100 µM.

And the TGI (OVCAR-8 ovarian)?
The TGI was over 100 µM.

And the TGI (PC-3 prostate)?
Its TGI is over 100 µM.

And the TGI (RPMI-8226 leukemia)?
Its TGI is 96.9 µM.

And the TGI (SF-268 CNS)?
Its TGI is over 100 µM.

What about the TGI (SF-295 CNS) of the same compound?
The TGI was over 100 µM.

What about the TGI (SF-539 CNS) of the same compound?
The TGI was over 100 µM.

And the TGI (SK-MEL-2 melanoma)?
The TGI was over 100 µM.

And the TGI (SK-MEL-28 melanoma)?
Its TGI is over 100 µM.

What about the TGI (SK-MEL-5 melanoma) of the same compound?
Its TGI is over 100 µM.

What about the TGI (SK-OV-3 ovarian) of the same compound?
The TGI was over 100 µM.

What about the TGI (SN12C renal) of the same compound?
Its TGI is over 100 µM.

What about the TGI (SNB-19 CNS) of the same compound?
The TGI was over 100 µM.

And the TGI (SR leukemia)?
Its TGI is over 100 µM.

What about the TGI (T-47D breast) of the same compound?
Its TGI is over 100 µM.

And the TGI (TK-10 renal)?
The TGI was over 100 µM.

What about the TGI (U251 CNS) of the same compound?
The TGI was over 100 µM.

And the TGI (UACC-257 melanoma)?
The TGI was over 100 µM.

What about the TGI (UACC-62 melanoma) of the same compound?
Its TGI is over 100 µM.

What about the TGI (UO-31 renal) of the same compound?
The TGI was 44.2 µM.

Which results are given for `CN(C)CCC=C1c2ccccc2C=Cc2ccccc21`?
TGI (786-0 renal): 30.5 µM; TGI (A498 renal): 29.4 µM; TGI (A549 NSCLC): 39.6 µM; TGI (ACHN renal): 30.9 µM; TGI (BT-549 breast): 31.8 µM; TGI (CAKI-1 renal): 35.7 µM; TGI (COLO 205 colon): 29.3 µM; TGI (DU-145 prostate): 35.4 µM; TGI (EKVX NSCLC): 28.7 µM; TGI (HCC-2998 colon): 18.5 µM; TGI (HCT-116 colon): 30.7 µM; TGI (HCT-15 colon): 33.1 µM; TGI (HOP-62 NSCLC): 33 µM; TGI (HOP-92 NSCLC): 34.9 µM; TGI (HS 578T breast): 42.3 µM; TGI (HT29 colon): 19.2 µM; TGI (IGROV1 ovarian): 31.5 µM; TGI (K-562 leukemia): 56 µM; TGI (KM12 colon): 35.3 µM; TGI (LOX IMVI melanoma): 31.6 µM; TGI (M14 melanoma): 32.6 µM; TGI (MALME-3M melanoma): 31.9 µM; TGI (MCF7 breast): 29.9 µM; TGI (MDA-MB-231 breast): 31.5 µM; TGI (MDA-MB-435): 36.5 µM; TGI (MOLT-4 leukemia): 42.6 µM; TGI (NCI-H23 lung): 35.1 µM; TGI (NCI-H460 lung): 28.9 µM; TGI (NCI-H522 lung): 37 µM; TGI (NCI/ADR-RES ovarian): 31.2 µM; TGI (OVCAR-3 ovarian): 31.1 µM; TGI (OVCAR-4 ovarian): 68.1 µM; TGI (OVCAR-5 ovarian): 29.5 µM; TGI (OVCAR-8 ovarian): 30.5 µM; TGI (PC-3 prostate): 35 µM; TGI (RPMI-8226 leukemia): 52.3 µM; TGI (RXF 393 renal): 34.3 µM; TGI (SF-268 CNS): 30.9 µM; TGI (SF-295 CNS): 32.8 µM; TGI (SK-MEL-2 melanoma): 32.3 µM; TGI (SK-MEL-28 melanoma): 31.3 µM; TGI (SK-MEL-5 melanoma): 27.5 µM; TGI (SK-OV-3 ovarian): 31.4 µM; TGI (SN12C renal): 32.5 µM; TGI (SNB-19 CNS): 41.7 µM; TGI (SNB-75 CNS): 31.1 µM; TGI (SR leukemia): 42.8 µM; TGI (SW-620 colon): 38.2 µM; TGI (T-47D breast): 44.8 µM; TGI (TK-10 renal): 29.8 µM; TGI (U251 CNS): 29.8 µM; TGI (UACC-257 melanoma): 28.3 µM; TGI (UACC-62 melanoma): 30.3 µM; TGI (UO-31 renal): 32 µM

Source: PubChem BioAssay (NCI)
